The values below come from article PMC3448946 (Biochemistry, 2011).

In assay [1] the target is GOX (glucose oxidase) (Aspergillus niger, UniProt P13006). Description: biochemical.
Assay [2] deals with Lys265Met MSOX mutant (Bacillus sp., UniProt P40859, K266M). The conditions noted are these: absorption spectrum of mutant unaffected by 2.0 M potassium chloride.
The target of assay [3] is T1, reduced MSOX (Bacillus sp., UniProt P40859).
In assay [4] the target is T2, MSOX (monomeric sarcosine oxidase) (Bacillus sp., UniProt P40859).
T2 sequence (P40859 1-390): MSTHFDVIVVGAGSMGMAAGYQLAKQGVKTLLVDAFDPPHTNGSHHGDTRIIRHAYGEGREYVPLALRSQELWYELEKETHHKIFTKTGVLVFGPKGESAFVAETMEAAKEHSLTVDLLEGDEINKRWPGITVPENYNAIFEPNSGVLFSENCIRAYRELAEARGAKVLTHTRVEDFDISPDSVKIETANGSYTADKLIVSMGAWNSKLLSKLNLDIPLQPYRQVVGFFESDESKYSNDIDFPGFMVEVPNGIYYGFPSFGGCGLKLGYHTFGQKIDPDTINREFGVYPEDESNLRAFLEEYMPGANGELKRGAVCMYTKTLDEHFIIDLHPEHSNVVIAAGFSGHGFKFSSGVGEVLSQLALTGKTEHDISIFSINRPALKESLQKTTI
Kind of assay: Spectral titration of MSOX. Type of assay: binding. As to conditions: for Kd: 50 mM potassium phosphate buffer.

Assay [5] deals with T1, reduced MSOX. The conditions noted are these: absence of chloride; cited from earlier work.
Assay [6] concerns the target T1, reduced MSOX. Kind of assay: biochemical.

Where two headings read alike, the source gives them in different places.

The Kd is the equilibrium constant for the complex coming apart.

GOX (glucose oxidase), sequence (P13006 23-605 limits assumed): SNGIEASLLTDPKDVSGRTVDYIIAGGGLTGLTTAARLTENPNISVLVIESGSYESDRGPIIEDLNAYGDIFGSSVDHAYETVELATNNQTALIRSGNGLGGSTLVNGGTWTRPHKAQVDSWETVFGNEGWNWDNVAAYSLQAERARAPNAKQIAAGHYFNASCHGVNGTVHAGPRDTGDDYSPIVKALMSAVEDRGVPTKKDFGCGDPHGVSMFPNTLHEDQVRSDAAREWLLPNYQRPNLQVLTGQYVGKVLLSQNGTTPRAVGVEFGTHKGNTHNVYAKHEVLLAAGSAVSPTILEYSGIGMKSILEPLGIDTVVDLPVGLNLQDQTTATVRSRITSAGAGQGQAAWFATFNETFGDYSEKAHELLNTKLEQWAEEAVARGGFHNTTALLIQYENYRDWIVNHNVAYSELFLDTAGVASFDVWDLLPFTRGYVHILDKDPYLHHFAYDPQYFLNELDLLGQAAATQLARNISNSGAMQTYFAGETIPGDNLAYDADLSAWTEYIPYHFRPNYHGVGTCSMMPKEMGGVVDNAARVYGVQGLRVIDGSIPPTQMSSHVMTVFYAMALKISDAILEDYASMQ

In the case of `Cl` [chloride], the Kd in assay [1] was found to be 6.2 ± 0.1 mM. Further, the “Chloride binding to Lys265Met MSOX” value in assay [2] is on record as “eliminates chloride binding”. In addition, the “Chloride binding at oxygen activation site of reduced MSOX in solution” value in assay [3] is given as “not bound”.
Take `O=S(=O)([O-])[O-].[Na+].[Na+]` [sulfate, sodium sulfate]: in assay [4] (667 mM sodium sulfate control for ionic strength), the “Binding of sulfate to MSOX” value is on record as “does not bind”.
`O=O` [oxygen]: the “Second-order rate constant for reaction of reduced MSOX with oxygen” value is given as 2.83 ± 0.07 × 10^5 M^−1 s^−1 in assay [5] and 2.48 ± 0.03 × 10^5 M^−1 s^−1 in assay [3] (50 mM potassium phosphate, pH 8.0, 2.0 M potassium chloride, 25 °C, monitored at 454 nm). In addition, the Kd in assay [6] is not below 10 mM.
With `CSCC(=O)O` [MTA, methylthioacetate], the Kd was 2.43 ± 0.02 mM in assay [4] (MSOX + MTA ⇄ MSOX•MTA, no additions, pH 8.0, 25 °C); 1.84 ± 0.01 mM in assay [4] (MSOX + MTA ⇄ MSOX•MTA, plus 667 mM sodium sulfate, pH 8.0, 25 °C, plus 667 mM sodium sulfate); 4.9 ± 0.07 mM in assay [4] (MSOX•Cl− + MTA ⇄ MSOX•Cl−•MTA, pH 8.0, containing 2.0 M potassium chloride, 25 °C, absorbance at 528 nm).
